Paper PMC10153361, “Mechanism of imidazole inhibition of a GH1 β‐glucosidase” (FEBS Open Bio, 2023)

Key:
[1] = biological target: T1, Sfβgly (GH1 β-glucosidase from Spodoptera frugiperda) (Spodoptera frugiperda, UniProt O61594); test: initial-rate kinetics, Lineweaver-Burk plots, p-nitrophenolate release; type: biochemical; details: competitive; also a substrate; substrate p-nitrophenyl β-glucoside; 100 mM phosphate pH 6.0, 30 °C
T1 construct: recombinant, E. coli BL21(DE3), vector pET46, Ni-NTA purified; secreted digestive midgut enzyme; catalytic residues E187 and E399

[2] = biological target: T1, Sfβgly (GH1 β-glucosidase from Spodoptera frugiperda); test: initial-rate kinetics, Lineweaver-Burk and secondary plots, p-nitrophenolate release; type: biochemical
Excerpt: initial-rate kinetics, Lineweaver-Burk and secondary plots, p-nitrophenolate release on Sfβgly (GH1 β-glucosidase from Spodoptera frugiperda)

T1 sequence (O61594 21-509): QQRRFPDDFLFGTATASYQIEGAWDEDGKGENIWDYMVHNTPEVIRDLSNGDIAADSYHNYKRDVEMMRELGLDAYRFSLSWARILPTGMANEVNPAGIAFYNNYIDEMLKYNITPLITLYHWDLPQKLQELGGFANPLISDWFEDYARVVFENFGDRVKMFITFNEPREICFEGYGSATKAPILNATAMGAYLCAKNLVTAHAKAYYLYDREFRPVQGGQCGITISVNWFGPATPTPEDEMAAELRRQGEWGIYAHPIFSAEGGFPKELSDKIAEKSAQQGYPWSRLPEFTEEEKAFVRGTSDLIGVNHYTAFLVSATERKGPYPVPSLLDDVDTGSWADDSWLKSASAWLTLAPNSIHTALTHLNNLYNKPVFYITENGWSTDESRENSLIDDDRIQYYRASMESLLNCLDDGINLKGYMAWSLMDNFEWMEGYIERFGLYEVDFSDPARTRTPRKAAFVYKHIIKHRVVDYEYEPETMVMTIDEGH

Row | SMILES | Ki [1] [mM] | Ki [2] [mM]
1 | OC[C@H]1O[C@@H](O[C@H]2[C@H](O)[C@@H](O)C(O)O[C@@H]2CO)[C@H](O)[C@@H](O)[C@@H]1O (some centres unmarked) [C2, cellobiose] | 10 | –
2 | c1c[nH]cn1 [imidazole] | – | 15.3 ± 0.3
